Data as given in ChEMBL document CHEMBL3046153, “Synthesis and antimicrobial evaluation of 4,5-diaryl-2-[4-(t-amino)-2-butynyl]-2,4-dihydro-3H-1,2,4-triazol-3-ones” (2012).
Converted amounts (≈) assume the structure as drawn.

Assays:
Type in all cases: functional
Staphylococcus aureus = test: Antibacterial activity against Staphylococcus aureus ATCC 29213 after 16 to 18 hr by NCCLS broth macrodilution method
Candida albicans = test: Antifungal activity against Candida albicans clinical isolate after 24 hr by NCCLS broth macrodilution method
Pseudomonas aeruginosa = test: Antibacterial activity against Pseudomonas aeruginosa ATCC 27953 after 16 to 18 hr by NCCLS broth macrodilution method
Escherichia coli = test: Antibacterial activity against Escherichia coli ATCC 25922 after 16 to 18 hr by NCCLS broth macrodilution method

| SMILES | MIC (Staphylococcus aureus) [µg/mL] | MIC (Candida albicans) [µg/mL] | MIC (Pseudomonas aeruginosa) [µg/mL] | MIC (Escherichia coli) [µg/mL] |
| --- | --- | --- | --- | --- |
| O=c1n(CC#CCN2CCCCCCC2)nc(-c2ccccc2)n1-c1cccc2ccccc12 | 50 (≈ 111 µM) | 12 (≈ 26.6 µM) | 50 (≈ 111 µM) | 25 (≈ 55.5 µM) |
| O=c1n(CC#CCN2CCCCCC2)nc(-c2ccccc2)n1-c1cccc2ccccc12 | 25 (≈ 57.3 µM) | 25 (≈ 57.3 µM) | 50 (≈ 115 µM) | 50 (≈ 115 µM) |
| CC1COc2c(N3CCN(C)CC3)c(F)cc3c(=O)c(C(=O)O)cn1c23 (stereo unspecified) [OFLOXACIN] | 12.5 (≈ 34.6 µM) | – | 25 (≈ 69.2 µM) | 12.5 (≈ 34.6 µM) |
| CC1CCCCN1CC#CCn1nc(-c2ccc(Cl)cc2)n(-c2ccccc2)c1=O (stereo unspecified) | 12.5 (≈ 29.7 µM) | 50 (≈ 119 µM) | 100 (≈ 238 µM) | 50 (≈ 119 µM) |
| O=c1n(CC#CCN2CCCCCC2)nc(-c2ccccc2)n1-c1ccccc1 | 6.25 (≈ 16.2 µM) | 12.5 (≈ 32.3 µM) | 50 (≈ 129 µM) | 12.5 (≈ 32.3 µM) |
| O=c1n(CC#CCN2CCCCCCC2)nc(-c2ccccc2)n1-c1ccccc1 | 6.25 (≈ 15.6 µM) | 12.5 (≈ 31.2 µM) | 25 (≈ 62.4 µM) | 6.25 (≈ 15.6 µM) |
| CC1CCCN(CC#CCn2nc(-c3ccccc3)n(-c3ccccc3)c2=O)C1 (stereo unspecified) | 12.5 (≈ 32.3 µM) | 12.5 (≈ 32.3 µM) | 50 (≈ 129 µM) | 12.5 (≈ 32.3 µM) |
| CC(=O)N1CCN(c2ccc(OCC3COC(Cn4ccnc4)(c4ccc(Cl)cc4Cl)O3)cc2)CC1 (stereo unspecified) [KETOCONAZOLE] | – | 12.5 (≈ 23.5 µM) | – | – |
| O=c1n(CC#CCN2CCCC2)nc(-c2ccccc2)n1-c1ccccc1 | 25 (≈ 69.7 µM) | 25 (≈ 69.7 µM) | 100 (≈ 279 µM) | 50 (≈ 139 µM) |
| CC1CCCC(C)N1CC#CCn1nc(-c2ccccc2)n(-c2cccc3ccccc23)c1=O (stereo unspecified) | 50 (≈ 111 µM) | 50 (≈ 111 µM) | 100 (≈ 222 µM) | 50 (≈ 111 µM) |
| O=c1n(CC#CCN2CCCCC2)nc(-c2ccc(Cl)cc2)n1-c1ccccc1 | 12.5 (≈ 30.7 µM) | 25 (≈ 61.4 µM) | 100 (≈ 246 µM) | 50 (≈ 123 µM) |
| CC1CCCC(C)N1CC#CCn1nc(-c2ccc(Cl)cc2)n(-c2ccccc2)c1=O (stereo unspecified) | 25 (≈ 57.5 µM) | 25 (≈ 57.5 µM) | 50 (≈ 115 µM) | 25 (≈ 57.5 µM) |
| CC1CCCN(CC#CCn2nc(-c3ccccc3)n(-c3cccc4ccccc34)c2=O)C1 (stereo unspecified) | 25 (≈ 57.3 µM) | 50 (≈ 115 µM) | 100 (≈ 229 µM) | 50 (≈ 115 µM) |
| CC1CCCCN1CC#CCn1nc(-c2ccccc2)n(-c2ccccc2)c1=O (stereo unspecified) | 12.5 (≈ 32.3 µM) | 25 (≈ 64.7 µM) | 100 (≈ 259 µM) | 50 (≈ 129 µM) |
| CC1CCCC(C)N1CC#CCn1nc(-c2ccccc2)n(-c2ccccc2)c1=O (stereo unspecified) | 12.5 (≈ 31.2 µM) | 25 (≈ 62.4 µM) | 50 (≈ 125 µM) | 12.5 (≈ 31.2 µM) |
